Source: ChEMBL document CHEMBL1149631, “Synthesis of 3,8,9-trisubstituted-1,7,9-triaza-fluorene-6-carboxylic acid derivatives as a new class of insulin secretagogues” (Bioorg Med Chem, 2007)

Tests used:
Type in all cases: functional
[1] = Effect on glucose-dependent insulin secretion activity per ug of total protein in rat RIN5F cells at 10 uM after 30 mins
[2] = Effect on glucose-dependent insulin secretion activity per ug of total protein in rat RIN5F cells at 0.1 uM after 30 mins
[3] = Effect on glucose-dependent insulin secretion activity per ug of total protein in rat RIN5F cells at 1 uM after 30 mins

| SMILES | Activity [1] | Activity [2] | Activity [3] |
| --- | --- | --- | --- |
| COC(=O)c1cc2c([nH]c3ncc(C)cc32)c(Cc2ccccc2)n1 | 15.1 pg/µg/h | 14.1 pg/µg/h | 14.8 pg/µg/h |
| Cc1nc(C(=O)O)cc2c3cccnc3n(C)c12 | 21.5 pg/µg/h | 16.2 pg/µg/h | 18.1 pg/µg/h |
| Cc1cnc2[nH]c3c(-c4ccccc4)nc(C(=O)O)cc3c2c1 | 21.4 pg/µg/h | 17.1 pg/µg/h | 19.3 pg/µg/h |
| Cc1cnc2[nH]c3c(Cc4ccccc4)nc(C(=O)O)cc3c2c1 | 22.1 pg/µg/h | 18 pg/µg/h | 19.2 pg/µg/h |
| COC(=O)C1Cc2c([nH]c3ncc(C)cc23)C(Cc2ccccc2)N1 (stereo unspecified) | 12.9 pg/µg/h | 11.5 pg/µg/h | 12.2 pg/µg/h |
| COC(=O)C1Cc2c([nH]c3ncccc23)C(C2CCCCC2)N1 (stereo unspecified) | 11 pg/µg/h | 10.2 pg/µg/h | 10.7 pg/µg/h |
| Cc1cnc2[nH]c3c(C)nc(C(=O)O)cc3c2c1 | 21.1 pg/µg/h | 16.2 pg/µg/h | 18.5 pg/µg/h |
| Cn1c2ncccc2c2cc(C(=O)O)nc(Cc3ccccc3)c21 | 22.2 pg/µg/h | 18.5 pg/µg/h | 19.4 pg/µg/h |
| COC(=O)c1cc2c([nH]c3ncc(C)cc32)c(C2CCCCC2)n1 | 14.3 pg/µg/h | 13.5 pg/µg/h | 14 pg/µg/h |
| COC(=O)c1cc2c3cc(C)cnc3n(C)c2c(C)n1 | 15.9 pg/µg/h | 14.8 pg/µg/h | 15.2 pg/µg/h |
| COC(=O)c1cc2c3cc(C)cnc3n(C)c2c(C2CCCCC2)n1 | 15.9 pg/µg/h | 14.8 pg/µg/h | 15.2 pg/µg/h |
| COC(=O)C1Cc2c([nH]c3ncccc23)C(C)N1 (stereo unspecified) | 10.9 pg/µg/h | 10.1 pg/µg/h | 10.6 pg/µg/h |
| Cc1cnc2c(c1)c1cc(C(=O)O)ncc1n2C | 24.2 pg/µg/h | 17.3 pg/µg/h | 20 pg/µg/h |
| COC(=O)C1Cc2c([nH]c3ncccc23)CN1 (stereo unspecified) | 10.9 pg/µg/h | 10.1 pg/µg/h | 10.6 pg/µg/h |
| COC(=O)c1cc2c3cccnc3n(C)c2c(Cc2ccccc2)n1 | 15 pg/µg/h | 14 pg/µg/h | 14.6 pg/µg/h |
| Cn1c2cnc(C(=O)O)cc2c2cccnc21 | 19.1 pg/µg/h | 15.2 pg/µg/h | 17.4 pg/µg/h |
| O=C(O)c1cc2c([nH]c3ncccc32)c(-c2ccccc2)n1 | 20.6 pg/µg/h | 16.2 pg/µg/h | 18.1 pg/µg/h |
| COC(=O)c1cc2c(cn1)[nH]c1ncc(C)cc12 | 13.9 pg/µg/h | 13.1 pg/µg/h | 13.2 pg/µg/h |
| COC(=O)C1Cc2c(n(C)c3ncc(C)cc23)C(C2CCCCC2)N1 (stereo unspecified) | 14.2 pg/µg/h | 12.4 pg/µg/h | 13.4 pg/µg/h |

| SMILES | Activity [1] | Activity [2] | Activity [3] |
| --- | --- | --- | --- |
| COC(=O)c1cc2c(cn1)[nH]c1ncccc12 | 12 pg/µg/h | 11 pg/µg/h | 11.9 pg/µg/h |
| O=C(O)c1cc2c([nH]c3ncccc32)c(C2CCCCC2)n1 | 20.4 pg/µg/h | 15.5 pg/µg/h | 17.1 pg/µg/h |
| Cc1nc(C(=O)O)cc2c1[nH]c1ncccc12 | 20.1 pg/µg/h | 15.4 pg/µg/h | 17.4 pg/µg/h |
| Cn1c2ncccc2c2cc(C(=O)O)nc(C3CCCCC3)c21 | 21.4 pg/µg/h | 16.1 pg/µg/h | 18.4 pg/µg/h |
| O=C(O)c1cc2c([nH]c3ncccc32)c(Cc2ccccc2)n1 | 21.5 pg/µg/h | 17.1 pg/µg/h | 18.3 pg/µg/h |
| COC(=O)c1cc2c3cccnc3n(C)c2cn1 | 13.9 pg/µg/h | 13 pg/µg/h | 13.1 pg/µg/h |
| O=C(O)c1cc2c(cn1)[nH]c1ncccc12 | 18 pg/µg/h | 14.1 pg/µg/h | 16.2 pg/µg/h |
| Cc1cnc2[nH]c3c(C4CCCCC4)nc(C(=O)O)cc3c2c1 | 21.2 pg/µg/h | 16.3 pg/µg/h | 18.4 pg/µg/h |
| Cc1cnc2c(c1)c1cc(C(=O)O)nc(-c3ccccc3)c1n2C | 32.2 pg/µg/h | 19.1 pg/µg/h | 26 pg/µg/h |
| COC(=O)c1cc2c3cccnc3n(C)c2c(C)n1 | 14.1 pg/µg/h | 13.4 pg/µg/h | 13.9 pg/µg/h |
| COC(=O)C1Cc2c(n(C)c3ncc(C)cc23)C(c2ccccc2)N1 (stereo unspecified) | 15.2 pg/µg/h | 13.5 pg/µg/h | 14.9 pg/µg/h |
| COC(=O)c1cc2c3cc(C)cnc3n(C)c2cn1 | 15.6 pg/µg/h | 14.3 pg/µg/h | 14.9 pg/µg/h |
| COC(=O)c1cc2c([nH]c3ncc(C)cc32)c(C)n1 | 14.2 pg/µg/h | 13.5 pg/µg/h | 13.9 pg/µg/h |
| COC(=O)C1Cc2c(n(C)c3ncccc23)CN1 (stereo unspecified) | 11.5 pg/µg/h | 10.8 pg/µg/h | 11.2 pg/µg/h |
| COC(=O)C1Cc2c(n(C)c3ncccc23)C(c2ccccc2)N1 (stereo unspecified) | 12.2 pg/µg/h | 11 pg/µg/h | 11.9 pg/µg/h |
| Cc1cnc2c(c1)c1cc(C(=O)O)nc(C)c1n2C | 28.3 pg/µg/h | 18.1 pg/µg/h | 22 pg/µg/h |
| COC(=O)C1Cc2c([nH]c3ncc(C)cc23)C(C2CCCCC2)N1 (stereo unspecified) | 11.9 pg/µg/h | 10.9 pg/µg/h | 11.5 pg/µg/h |
| COC(=O)C1Cc2c(n(C)c3ncc(C)cc23)CN1 (stereo unspecified) | 14.1 pg/µg/h | 12.2 pg/µg/h | 13.1 pg/µg/h |
| COC(=O)C1Cc2c([nH]c3ncccc23)C(Cc2ccccc2)N1 (stereo unspecified) | 11.9 pg/µg/h | 10.9 pg/µg/h | 11.5 pg/µg/h |

| SMILES | Activity [1] | Activity [2] | Activity [3] |
| --- | --- | --- | --- |
| COC(=O)c1cc2c([nH]c3ncccc32)c(C2CCCCC2)n1 | 12.5 pg/µg/h | 11.9 pg/µg/h | 12.1 pg/µg/h |
| COC(=O)C1Cc2c([nH]c3ncc(C)cc23)C(c2ccccc2)N1 (stereo unspecified) | 12.2 pg/µg/h | 11 pg/µg/h | 11.9 pg/µg/h |
| Cc1cnc2c(c1)c1cc(C(=O)O)nc(C3CCCCC3)c1n2C | 28.2 pg/µg/h | 18.2 pg/µg/h | 23.1 pg/µg/h |
| Cc1cnc2[nH]c3cnc(C(=O)O)cc3c2c1 | 19.2 pg/µg/h | 15.1 pg/µg/h | 17.3 pg/µg/h |
| COC(=O)C1Cc2c([nH]c3ncccc23)C(c2ccccc2)N1 (stereo unspecified) | 11.5 pg/µg/h | 10.8 pg/µg/h | 11.2 pg/µg/h |
| COC(=O)C1Cc2c(n(C)c3ncccc23)C(Cc2ccccc2)N1 (stereo unspecified) | 12.9 pg/µg/h | 11.5 pg/µg/h | 12.2 pg/µg/h |
| COC(=O)c1cc2c([nH]c3ncccc32)c(-c2ccccc2)n1 | 12.9 pg/µg/h | 12 pg/µg/h | 12.6 pg/µg/h |
| COC(=O)c1cc2c3cccnc3n(C)c2c(-c2ccccc2)n1 | 14.8 pg/µg/h | 13.9 pg/µg/h | 14.1 pg/µg/h |
| COC(=O)C1Cc2c(n(C)c3ncccc23)C(C)N1 (stereo unspecified) | 11.9 pg/µg/h | 10.9 pg/µg/h | 11.5 pg/µg/h |
| COC(=O)c1cc2c3cc(C)cnc3n(C)c2c(-c2ccccc2)n1 | 16.2 pg/µg/h | 15.1 pg/µg/h | 15.6 pg/µg/h |
| COC(=O)c1cc2c([nH]c3ncccc32)c(Cc2ccccc2)n1 | 13.5 pg/µg/h | 12.9 pg/µg/h | 13 pg/µg/h |
| COC(=O)c1cc2c([nH]c3ncccc32)c(C)n1 | 12.5 pg/µg/h | 11 pg/µg/h | 12.1 pg/µg/h |
| COC(=O)C1Cc2c([nH]c3ncc(C)cc23)C(C)N1 (stereo unspecified) | 11.9 pg/µg/h | 10.9 pg/µg/h | 11.5 pg/µg/h |
| COC(=O)c1cc2c([nH]c3ncc(C)cc32)c(-c2ccccc2)n1 | 14.9 pg/µg/h | 13.9 pg/µg/h | 14.2 pg/µg/h |
| COC(=O)c1cc2c3cccnc3n(C)c2c(C2CCCCC2)n1 | 14.2 pg/µg/h | 13.4 pg/µg/h | 13.9 pg/µg/h |
| Cn1c2ncccc2c2cc(C(=O)O)nc(-c3ccccc3)c21 | 21.1 pg/µg/h | 17.2 pg/µg/h | 19.3 pg/µg/h |
| COC(=O)C1Cc2c(n(C)c3ncc(C)cc23)C(C)N1 (stereo unspecified) | 14 pg/µg/h | 12.3 pg/µg/h | 13.2 pg/µg/h |
| COC(=O)C1Cc2c(n(C)c3ncccc23)C(C2CCCCC2)N1 (stereo unspecified) | 11.9 pg/µg/h | 10.9 pg/µg/h | 11.5 pg/µg/h |
| COC(=O)C1Cc2c([nH]c3ncc(C)cc23)CN1 (stereo unspecified) | 11.5 pg/µg/h | 10.8 pg/µg/h | 11.2 pg/µg/h |
